In patent US20090239951A1, “Crystalline Material” (priority 2006, published 2009):

Legend:
Type in all cases: physicochemical
[1] = Heat stability of crystalline form; conditions: solid crystalline form
[2] = Hygroscopicity versus relative humidity
[3] = Conversion of crystal form on being dissolved or slurried in solvents
[4] = Stability of the crystal form (general statement)
[5] = Stability of Form N-5 slurries in ethanol:water mixtures; conditions: ethanol:water mixtures (1:1, 1:1.3 and 1:2) at 5, 25 and 30° C. after 1 h, 48 h and 5 days; confirmed by DSC and FTIR
Experimental: The stability of N-5 slurries in ethanol:water mixtures (1:1, 1:1.3 and 1:2) at 5, 25 and 30° C. was determined after 1 h, 48 h and 5 days. […] DSC and FTIR confirmed this.

SMILES	heat stable up to [1]	becoming hygroscopic at a relative humidity of [2]	form conversion on being dissolved or slurried ([3]; common solvents: alcohols such as methanol, ethanol or isopropanol, nitromethane or nitroethane, alcohol/water mixtures)	stability of crystal form [4]	non-hygroscopic up to a relative humidity of [2]	stability of slurries (transformation to other form) [5]	stability when slurried in the presence of an alcohol ([3]; slurried in the presence of an alcohol, after very long periods conversion into Form N-6 may occur)
CC(C)c1cc(Oc2c(Br)cc(NC(=O)CC(=O)O)cc2Br)ccc1O [Form N-1, 3-[[3,5-dibromo-4-[4-hydroxy-3-(1-methylethyl)-phenoxy]-phenyl]-amino]-3-oxopropanoic acid, reference compound]	around 125 °C	50%	converts into Form N-5 and/or Form N-6	unstable			
CC(C)c1cc(Oc2c(Br)cc(NC(=O)CC(=O)O)cc2Br)ccc1O [Form N-5, 3-[[3,5-dibromo-4-[4-hydroxy-3-(1-methylethyl)-phenoxy]-phenyl]-amino]-3-oxopropanoic acid]	at least 170 °C				95%	did not transform to any other form	stable for a number of days
CC(C)c1cc(Oc2c(Br)cc(NC(=O)CC(=O)O)cc2Br)ccc1O [Form N-6, 3-[[3,5-dibromo-4-[4-hydroxy-3-(1-methylethyl)-phenoxy]-phenyl]-amino]-3-oxopropanoic acid]	at least 170 °C				95%		
